# Experimental data published in patent US20230064879A1, “NANODRUG PARTICLES, THE USE THEREOF, AND PREPARATION METHOD THEREOF” (NATIONAL YANG MING CHIAO TUNG UNIVERSITY, priority 2021, published 2023).
# Tests used:
# [1] = In vitro release of camptothecin (dialysis bag, Korsmeyer-Peppas model); type: physicochemical; settings: PBS pH 7.4, 37° C., 168 hours, MWCO 2,000 Da
# Description: The in vitro release of camptothecin under different conditions were compared; the conditions were: […] The test duration time was 168 hours, the test temperature was 37° C., and the dialysis bag with molecular weight cut-off (MWCO) of 2,000 Da was used.
# [2] = test system: A549 cells; assay: Cytotoxicity test on A549 cells; type: cell-based; settings: Homo sapiens, 24 hours after drug administration
# Description: The amount of the cells in each test well was 100 cells. 24 hours after the drug administration, the cell counts were measured.
# [3] = test system: HT-29 cells; assay: Cytotoxicity test on HT-29 cells; type: cell-based; settings: Homo sapiens, 24 hours after drug applied
compound,measurement,setting,value
CC[C@@]1(O)C(=O)OCc2c1cc1n(c2=O)Cc2cc3ccccc3nc2-1 [Camptothecin],K (Korsmeyer-Peppas model),[1],44.25
same,n (Korsmeyer-Peppas model),[1],0.09985
same,IC50,[2],40.1 µg/mL
same,IC50,[3],52.3 µg/mL
